Laboratory results: the supplement of paper PMC13380429

Experiments:
Settings in all cases: 72 h
Caco-2 [1] = test: cell viability relative to DMSO; higher = less toxic
Calu-3 [2] = test: as above
HepG2 [3] = test: as above
U2OS [4] = test: as above
Vero E6 [5] = test: as above
Caco-2 [6] = test: relative viability EC50 (midpoint between 100% and the lowest measured viability); higher = less toxic
Calu-3 [7] = test: as above
HepG2 [8] = test: as above
U2OS [9] = test: as above
Vero E6 [10] = test: as above
Caco-2 [11] = test: drug sensitivity score (DSS) for viability; higher = more toxic; extreme values may be limits of the assay
Calu-3 [12] = test: as above
HepG2 [13] = test: as above
U2OS [14] = test: as above
Vero E6 [15] = test: as above

Row | SMILES | cell viability (Caco-2 [1]; 1 nM) [%] | cell viability (Caco-2 [1]; 10 nM) [%] | cell viability (Caco-2 [1]; 100 nM) [%] | cell viability (Caco-2 [1]; 1000 nM) [%] | cell viability (Caco-2 [1]; 10000 nM) [%] | cell viability (Calu-3 [2]; 1 nM) [%] | cell viability (Calu-3 [2]; 10 nM) [%] | cell viability (Calu-3 [2]; 100 nM) [%] | cell viability (Calu-3 [2]; 1000 nM) [%] | cell viability (Calu-3 [2]; 10000 nM) [%] | cell viability (HepG2 [3]; 1 nM) [%] | cell viability (HepG2 [3]; 10 nM) [%] | cell viability (HepG2 [3]; 100 nM) [%] | cell viability (HepG2 [3]; 1000 nM) [%] | cell viability (HepG2 [3]; 10000 nM) [%] | cell viability (U2OS [4]; 1 nM) [%] | cell viability (U2OS [4]; 10 nM) [%] | cell viability (U2OS [4]; 100 nM) [%] | cell viability (U2OS [4]; 1000 nM) [%] | cell viability (U2OS [4]; 10000 nM) [%] | cell viability (Vero E6 [5]; 1 nM) [%] | cell viability (Vero E6 [5]; 10 nM) [%] | cell viability (Vero E6 [5]; 100 nM) [%] | cell viability (Vero E6 [5]; 1000 nM) [%] | cell viability (Vero E6 [5]; 10000 nM) [%] | relative viability EC50 (Caco-2 [6]) [µM] | relative viability EC50 (Calu-3 [7]) [µM] | relative viability EC50 (HepG2 [8]) [µM] | relative viability EC50 (U2OS [9]) [µM] | relative viability EC50 (Vero E6 [10]) [µM] | drug sensitivity score (Caco-2 [11]) | drug sensitivity score (Calu-3 [12]) | drug sensitivity score (HepG2 [13]) | drug sensitivity score (U2OS [14]) | drug sensitivity score (Vero E6 [15])
1 | CC[N+](C)(CC)CCC[n+]1c(-c2ccccc2)c2cc(N)ccc2c2ccc(N)cc21 [propidium-iodide] | 91.3 | 99.2 | 93.1 | 95.3 | 75.7 | 100 | 99.6 | 102 | 104 | 92.3 | 93.8 | 104 | 90.8 | 90.4 | 80.1 | 99.2 | 103 | 98.4 | 99.8 | 83.7 | 96.8 | 99.5 | 98.3 | 96 | 95.7 | > 10 | > 10 | > 10 | > 10 | > 10 | 1.5 | 0 | 1.2 | 0.3 | 0
2 | COc1cc2c3cc1Oc1cc(ccc1O)C[C@@H]1c4c(cc(OC)c(O)c4Oc4ccc(cc4)C[C@@H]3N(C)CC2)CC[N+]1(C)C [tubocurarine] | 93.5 | 115 | 102 | 108 | 111 | 107 | 102 | 103 | 102 | 91.3 | 99.5 | 94.5 | 94.6 | 94.6 | 97.6 | 93.5 | 97.2 | 98.4 | 99.9 | 106 | 108 | 88.9 | 107 | 98.4 | 118 | > 10 | > 10 | > 10 | > 10 | > 10 | 0 | 0 | 0 | 0 | 0
3 | O=C(O)CCc1cc(I)c(Oc2ccc(O)cc2)c(I)c1 [diiodothyropropionic-acid] | 113 | 124 | 94.4 | 113 | 109 | 96.8 | 101 | 94.5 | 99.6 | 93.6 | 104 | 95 | 113 | 103 | 99.8 | 96.2 | 99.1 | 95.8 | 98.4 | 96.6 | 105 | 103 | 104 | 87.1 | 92.1 | > 10 | > 10 | > 10 | > 10 | > 10 | 0 | 0 | 0 | 0 | 0.7
4 | COc1cc(O)c2c(c1)C(=O)c1cc(C)cc(O)c1C2=O [rheochrysidin] | 100 | 109 | 97.9 | 96.9 | 93.5 | 101 | 104 | 105 | 101 | 96.8 | 92.7 | 106 | 108 | 107 | 109 | 93.4 | 98.8 | 101 | 100 | 93.5 | 98.9 | 102 | 98.5 | 98.8 | 101 | > 10 | > 10 | > 10 | > 10 | > 10 | 0 | 0 | 0 | 0 | 0
5 | CN1CC[C@@H]2CN3CCc4cccc(c43)[C@@H]2C1 [SDZ-SER-082] | 86.8 | 98.7 | 93.4 | 103 | 100 | 95.7 | 102 | 114 | 94.9 | 100 | 106 | 103 | 104 | 95.8 | 110 | 98.1 | 97.8 | 98.8 | 100 | 95.2 | 95.1 | 92.7 | 95.6 | 92.5 | 103 | > 10 | > 10 | > 10 | > 10 | > 10 | 0 | 0 | 0 | 0 | 0
